Data published in patent US11634396B2 (priority 2021, dated 2023).
Read-outs that look alike come from different tables or passages of the source.

Tests used:
human mOR = human mOR (Homo sapiens (Human), UniProt P35372); experiment: cell-based
human dOR = human dOR (Homo sapiens (Human), UniProt P41143); experiment: cell-based
[1] = dOR cAMP Agonist Assay EC50, CHO Tag-lite human dOR stable cell line, forskolin
[2] = CHO Tag-lite human mOR stable cell line, forskolin 4 μM and DAMGO at EC90, read-out: mOR cAMP Antagonist Assay IC50

human mOR, sequence (P35372 whole entry): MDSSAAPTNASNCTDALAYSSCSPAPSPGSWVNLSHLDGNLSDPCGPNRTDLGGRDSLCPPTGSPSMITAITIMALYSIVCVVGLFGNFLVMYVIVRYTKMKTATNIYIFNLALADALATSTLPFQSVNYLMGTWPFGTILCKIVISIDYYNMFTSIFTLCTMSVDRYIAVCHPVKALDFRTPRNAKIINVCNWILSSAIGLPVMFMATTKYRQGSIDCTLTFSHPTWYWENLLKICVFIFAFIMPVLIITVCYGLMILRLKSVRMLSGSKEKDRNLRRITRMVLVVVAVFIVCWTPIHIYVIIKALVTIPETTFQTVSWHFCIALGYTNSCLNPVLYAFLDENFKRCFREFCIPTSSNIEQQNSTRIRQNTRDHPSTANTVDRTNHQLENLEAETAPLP
human dOR, sequence (P41143 whole entry): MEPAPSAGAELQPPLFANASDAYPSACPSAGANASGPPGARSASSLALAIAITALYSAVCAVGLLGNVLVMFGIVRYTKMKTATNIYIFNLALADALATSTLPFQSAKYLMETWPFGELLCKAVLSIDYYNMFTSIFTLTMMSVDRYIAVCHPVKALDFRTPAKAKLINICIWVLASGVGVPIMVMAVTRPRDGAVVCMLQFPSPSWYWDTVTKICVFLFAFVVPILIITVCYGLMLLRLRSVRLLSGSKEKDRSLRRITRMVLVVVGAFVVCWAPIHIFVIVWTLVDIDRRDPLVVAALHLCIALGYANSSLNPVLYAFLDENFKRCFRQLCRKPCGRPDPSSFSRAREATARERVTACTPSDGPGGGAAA

Compound | IC50 (human mOR) | EC50 (human dOR; [1]) | also measured
CNC(=O)c1ccc(C[C@@H](CNC(=O)C[C@@H](CC(C)C)c2ccccc2)N(C)C)cc1F [Compound 160, 4-((S)-2-(dimethylamino)-3-((R)-5-methyl-3-phenylhexanamido)propyl)-2-fluoro-N-methylbenzamide] | < 300 nM | < 300 nM | –
CC(C)C[C@@H](CC(=O)NC[C@H](Cc1ccc2[nH]c(=O)oc2c1)N(C)C)c1ccccc1 [Compound 172, (3S)-N-[(2S)-2-(dimethylamino)-3-(2-oxo-2,3-dihydro-1,3-benzoxazol-6-yl)propyl]-5-methyl-3-phenylhexanamide] | < 300 nM | < 300 nM | –
CC(C)[C@@H](CC(=O)NC[C@H](Cc1ccc2[nH]ncc2c1)N(C)C)c1ccccc1 [Compound 219, (R)-N-((S)-2-(dimethylamino)-3-(1H-indazol-5-yl)propyl)-4-methyl-3-phenylpentanamide] | – | 300 to 3000 nM | IC50 (human mOR; [2]): < 300 nM
CNC(=O)c1ccc(C[C@@H](CNC(=O)C[C@@H](c2ccccc2)C(C)(C)C)N(C)C)cc1F [Compound 159, 4-((S)-3-((R)-4,4-dimethyl-3-phenylpentanamido)-2-(dimethylamino)propyl)-2-fluoro-N-methylbenzamide] | < 300 nM | 300 to 3000 nM | –
CN(C)[C@H](CNC(=O)C[C@@H](c1ccccc1)C(C)(C)C)Cc1ccc(C(N)=O)cc1 [Compound 95, 4-((S)-3-((R)-4,4-dimethyl-3-phenylpentanamido)-2-(dimethylamino)propyl)benzamide] | – | > 3000 nM | –
CNC(=O)c1ccc(C[C@@H](CNC(=O)C[C@@H](c2ccccc2)C(C)C)N(C)C)cc1F [Compound 162, 4-((S)-2-(dimethylamino)-3-((R)-4-methyl-3-phenylpentanamido)propyl)-2-fluoro-N-methylbenzamide] | < 300 nM | 300 to 3000 nM | –
CN(C)[C@H](CNC(=O)C[C@H](c1ccccc1)C1CC1)Cc1ccc(O)cc1Cl [Compound 263, (S)-N-((S)-3-(2-chloro-4-hydroxyphenyl)-2-(dimethylamino)propyl)-3-cyclopropyl-3-phenylpropanamide] | < 300 nM | < 300 nM | –
CC(C)C[C@@H](CC(=O)NC[C@H](Cc1ccc2c(c1)CC(=O)N2)N(C)C)c1ccccc1 [Compound 183, (S)-N-((S)-2-(dimethylamino)-3-(2-oxoindolin-5-yl)propyl)-5-methyl-3-phenylhexanamide] | < 300 nM | > 3000 nM | –
CNC(=O)c1ccc(C[C@@H](CNC(=O)C[C@H](c2ccccc2)C(C)(C)C)N2CCCC2)cc1F [Compound 157, 4-((S)-3-((S)-4,4-dimethyl-3-phenylpentanamido)-2-(pyrrolidin-1-yl)propyl)-2-fluoro-N-methylbenzamide] | < 300 nM | > 3000 nM | –
CNC(=O)c1cc(F)c(C[C@@H](CNC(=O)C[C@H](c2ccccc2)C(C)(C)C)N(C)C)cc1F [Compound 104, 4-((S)-3-((S)-4,4-dimethyl-3-phenylpentanamido)-2-(dimethylamino)propyl)-2,5-difluoro-N-methylbenzamide] | < 300 nM | 300 to 3000 nM | –
CC(C)[C@@H](CC(=O)NC[C@H](Cc1ccc2[nH]c(=O)oc2c1)N(C)C)c1ccccc1 [Compound 173, (R)-N-((S)-2-(dimethylamino)-3-(2-oxo-2,3-dihydrobenzo[d]oxazol-6-yl)propyl)-4-methyl-3-phenylpentanamide] | < 300 nM | < 300 nM | –
CNC(=O)c1ccc(C[C@@H](CNC(=O)C[C@H](c2ccccc2)C(C)(C)C)N(C)C)cc1F [Compound 158, 4-((S)-3-((S)-4,4-dimethyl-3-phenylpentanamido)-2-(dimethylamino)propyl)-2-fluoro-N-methylbenzamide] | < 300 nM | > 3000 nM | –
Cc1cc(C(N)=O)cc(C)c1C[C@@H](CNC(=O)C[C@H](CC(C)C)c1ccccc1)N(C)C [Compound 9, 4-[(2S)-2-(dimethylamino)-3-[(3S)-5-methyl-3-phenylhexanamido]propyl]-3,5-dimethylbenzamide] | < 300 nM | > 3000 nM | –
CC(C)C[C@H](CC(=O)NC[C@H](Cc1ccc(-c2cn[nH]c2)cc1Cl)N(C)C)c1ccccc1 [Compound 326, (3R)-N-[(2S)-3-[2-chloro-4-(1H-pyrazol-4-yl)phenyl]-2-(dimethylamino)propyl]-5-methyl-3-phenylhexanamide] | – | – | IC50 (human mOR; read-out: mOR cAMP Antagonist Assay IC50): 300 to 3000 nM; EC50 (human dOR; read-out: dOR cAMP Agonist Assay EC50): > 3000 nM
CC(C)C[C@@H](CC(=O)NC[C@H](Cc1ccc2[nH]ncc2c1)N(C)C)c1ccccc1 [Compound 214, (S)-N-((S)-2-(dimethylamino)-3-(1H-indazol-5-yl)propyl)-5-methyl-3-phenylhexanamide] | – | < 300 nM | IC50 (human mOR; [2]): < 300 nM
CC(C)[C@@H](CC(=O)NC[C@H](Cc1ccc(C(N)=O)cc1)N(C)C)c1ccccc1 [Compound 92, 4-((S)-2-(dimethylamino)-3-((R)-4-methyl-3-phenylpentanamido)propyl)benzamide] | < 300 nM | < 300 nM | –

Compound | IC50 (human mOR) | EC50 (human dOR; [1]) | also measured
CN(C)[C@H](CNC(=O)CC(C)(C)c1ccccc1)Cc1ccc2[nH]ncc2c1 [Compound 221, (S)-N-(2-(dimethylamino)-3-(1H-indazol-5-yl)propyl)-3-methyl-3-phenylbutanamide] | < 300 nM | > 3000 nM | –
C[C@@H](CC(=O)NC[C@H](Cc1ccc2[nH]ncc2c1)N(C)C)c1ccc(Cl)cc1 [Compound 220, (S)-3-(4-chlorophenyl)-N-((S)-2-(dimethylamino)-3-(1H-indazol-5-yl)propyl)butanamide] | < 300 nM | > 3000 nM | –
C[C@@H](CC(=O)NC[C@H](Cc1ccc2[nH]ncc2c1)N(C)C)c1ccc(F)cc1 [Compound 218, (S)-N-((S)-2-(dimethylamino)-3-(1H-indazol-5-yl)propyl)-3-(4-fluorophenyl)butanamide] | < 300 nM | > 3000 nM | –
C[C@H](CC(=O)NC[C@H](Cc1ccc2[nH]ncc2c1)N(C)C)c1cccc(F)c1 [Compound 215, (R)-N-((S)-2-(dimethylamino)-3-(1H-indazol-5-yl)propyl)-3-(3-fluorophenyl)butanamide] | – | 300 to 3000 nM | IC50 (human mOR; [2]): < 300 nM
CNC(=O)c1ccc(C[C@@H](CNC(=O)C[C@@H](CC(C)C)c2ccccc2)N(C)C)cc1Cl [Compound 147, 2-chloro-4-((S)-2-(dimethylamino)-3-((R)-5-methyl-3-phenylhexanamido)propyl)-N-methylbenzamide] | < 300 nM | < 300 nM | –
CN(C)[C@H](CNC(=O)C[C@@H](c1ccccc1)C1CC1)Cc1ccc2[nH]c(=O)oc2c1 [Compound 178, (R)-3-cyclopropyl-N-((S)-2-(dimethylamino)-3-(2-oxo-2,3-dihydrobenzo[d]oxazol-6-yl)propyl)-3-phenylpropanamide] | < 300 nM | 300 to 3000 nM | –
C[C@@H](CC(=O)NC[C@H](Cc1ccc2[nH]ncc2c1)N(C)C)c1ccccn1 [Compound 216, (S)-N-((S)-2-(dimethylamino)-3-(1H-indazol-5-yl)propyl)-3-(pyridin-2-yl)butanamide] | – | 300 to 3000 nM | IC50 (human mOR; [2]): < 300 nM
CNC(=O)c1ccc(C[C@@H](CNC(=O)C[C@H](c2cncc(Cl)c2)C2(C(F)(F)F)CC2)N(C)C)c(Cl)c1 [Compound 114, 3-chloro-4-((S)-3-((R)-3-(5-chloropyridin-3-yl)-3-(1-(trifluoromethyl)cyclopropyl)propanamido)-2-(dimethylamino)propyl)-N-methylbenzamide] | < 300 nM | – | –
CN(C)[C@H](CNC(=O)C[C@H](CC1CC1)c1cccnc1)Cc1ccc(O)c(Cl)c1 [Compound 286, (S)-N-((S)-3-(3-chloro-4-hydroxyphenyl)-2-(dimethylamino)propyl)-4-cyclopropyl-3-(pyridin-3-yl)butanamide] | < 300 nM | – | –
Cc1cc(O)cc(C)c1C[C@@H](CNC(=O)C[C@H](c1cncc(Cl)c1)C1(C(F)(F)F)CC1)N(C)C [Compound 245, (R)-3-(5-chloropyridin-3-yl)-N-((S)-2-(dimethylamino)-3-(4-hydroxy-2,6-dimethylphenyl)propyl)-3-(1-(trifluoromethyl)cyclopropyl)propanamide] | < 300 nM | – | –
Cc1cc([C@@H](CC(=O)NC[C@H](Cc2ccc3[nH]ncc3c2)N(C)C)C2(C(F)(F)F)CC2)ccn1 [Compound 202, (R)-N-((S)-2-(dimethylamino)-3-(1H-indazol-5-yl)propyl)-3-(2-methylpyridin-4-yl)-3-(1-(trifluoromethyl)cyclopropyl)propanamide] | – | – | IC50 (human mOR; [2]): < 300 nM
CN(C)[C@H](CNC(=O)C[C@H](CC1CC1)c1ccncc1)Cc1ccc(O)cc1 [Compound 298, (S)-4-cyclopropyl-N-((S)-2-(dimethylamino)-3-(4-hydroxyphenyl)propyl)-3-(pyridin-4-yl)butanamide] | < 300 nM | – | –
CNC(=O)c1cc(C)c(C[C@@H](CNC(=O)C[C@H](c2ccc(Cl)cc2)C2(C(F)(F)F)CC2)N(C)C)c(C)c1 [Compound 106, 4-((S)-3-((R)-3-(4-chlorophenyl)-3-(1-(trifluoromethyl)cyclopropyl)propanamido)-2-(dimethylamino)propyl)-3,5-trimethylbenzamide] | – | – | IC50 (human mOR; [2]): > 3000 nM
CN(C)[C@H](CNC(=O)C[C@@H](CC1CC1)c1cccnc1)Cc1ccc(O)c(Cl)c1 [Compound 279, (R)-N-((S)-3-(3-chloro-4-hydroxyphenyl)-2-(dimethylamino)propyl)-4-cyclopropyl-3-(pyridin-3-yl)butanamide] | < 300 nM | – | –
CN(C)[C@H](CNC(=O)C[C@H](c1cccnc1)C1(C(F)(F)F)CC1)Cc1ccc2[nH]ncc2c1F [Compound 195, (R)-N-((S)-2-(dimethylamino)-3-(4-fluoro-1H-indazol-5-yl)propyl)-3-(pyridin-3-yl)-3-(1-(trifluoromethyl)cyclopropyl)propanamide] | < 300 nM | – | –
Cc1ncc([C@@H](CC(=O)NC[C@H](Cc2ccc(O)cc2)N(C)C)C2(C(F)(F)F)CC2)s1 [Compound 295, (S)-N-((S)-2-(dimethylamino)-3-(4-hydroxyphenyl)propyl)-3-(2-methylthiazol-5-yl)-3-(1-(trifluoromethyl)cyclopropyl)propanamide] | < 300 nM | – | –
